The subject of the test is CEM cells HIV-1 protection, formazan growth assay. As to the kind of experiment: NCI AIDS Antiviral Assay. To be noted: for IC50: measured here: growth of uninfected CEM cells. A digest of the protocol: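 Human CEM cells, uninfected and HIV-1-infected, exposed to five drug concentrations; growth measured by soluble formazan assay and scored as percent protection from infection, with protecting compounds retested.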

Consider 73 compounds from PubChem BioAssay AID179 (DTP/NCI, 2004).

By EC50 is commonly meant the concentration needed to bring the measured effect to its halfway point. Usually IC50 stands for the point on the concentration scale where inhibition reaches its midpoint.

Values joined by “and” are separate entries in the source; they are usually repeats but may differ in a detail not shown here. Equal entries are not always repeated. Active and inactive are the calls of the source.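 How the source made its calls: active means compounds giving half or more protection of infected cells from virus-caused growth loss, again on retest; inactive means the rest.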

Turning to `O=C(c1cc(O)c(O)c(O)c1)c1ccc(O)c(O)c1O`, the EC50 was more than 200 µM and the IC50 came out at 3.98 µM.

As to `NC(=O)c1ncn(CC2(COC(=O)c3ccccc3)CCC2)n1`, the EC50 is more than 200 µM and the IC50 was more than 200 µM.

In the case of `CC1SC2(CC3CCC2(C)C3(C)C)OC1=O` (centres undefined), the EC50 was more than 20.9 µM and the IC50 was more than 20.9 µM.

On to `COC(=O)c1ccc(C)cc1CC1Cc2cc(C)ccc2C1=O` (centres undefined), for which the EC50 is more than 200 µM and the IC50 is more than 200 µM.

As to `S=C(N/N=C/c1ccccc1)NC1CC(c2ccccc2)Oc2ccccc21` (centres undefined), the outcome was inactive.

As to `Cc1cc2c(cc1C)NC(=O)C(NC(=O)/C=C/c1ccccc1)C=N2` (centres undefined), the EC50 is more than 56.2 µM and the IC50 is 38.9 µM.

For `O=C1CCC(N2C(=O)c3ccccc3C2=O)C(=O)N1` (centres undefined), the outcome was inactive.

With `CCN(CC)C(=O)c1c(Cl)cc(N(CC)CC)oc1=O`, the EC50 is more than 832 µM and the IC50 was more than 832 µM.

Regarding `COC(=O)/C(C#N)=C(\Nc1ccccc1)N1CCCCC1`, the EC50 was more than 200 µM and the IC50 was determined as 97.7 µM.

Regarding `NC(=S)N/N=C1/CCCC2CCCC[C@@H]12` (some centres undefined), the EC50 is more than 200 µM and the IC50 is more than 200 µM.

Consider `OC1C2CCCCN2C[C@@H](O)[C@H]1O` (some centres undefined), for which the EC50 is more than 200 µM and the IC50 was more than 200 µM.

For `CC1CC[C@]2(C(=O)O)CCC3(C)C(=C2[C@H]1C)C=CC1[C@@]2(C)CC[C@H](O)C(C)(C)C2CC[C@]13C` (some centres undefined), the EC50 is more than 100 µM and the half-maximal inhibitory concentration (IC50) was more than 100 µM.

In the case of `O=C(OCc1ccccc1)c1ccc(NCc2cc(O)ccc2O)cc1`, the outcome was inactive.

Regarding `COC(=N)C1(C#N)NC(c2ccsc2)C(C#N)(C#N)NC1c1ccsc1` (centres undefined), the EC50 was more than 200 µM and the IC50 amounted to 56.2 µM.

As to `CC(C)(Cc1ccccc1)N1C(=O)N1C(C)(C)Cc1ccccc1`, the EC50 is more than 200 µM and the IC50 was found to be 28.8 µM.

For the compound `c1cc(-c2nc(-c3ccncc3)nc(-c3ccncc3)n2)ccn1`, the EC50 is more than 200 µM and the IC50 was more than 200 µM.

Take `CN1C(=O)N(C)C2(CCN(CCCCCCF)CC2)C1=O`: the EC50 was more than 200 µM and the IC50 was more than 200 µM.

Take `CCCCCCCCCCCCCCCCCC(=O)OCC(COC1OC(CS(=O)(=O)O)C(O)C(O)C1O)OC(=O)CCCCCCCCCCCCCCCCC` (centres undefined): the EC50 was 11.7 µM and > 20.4 µM; the outcome was inactive; the half-inhibitory concentration (IC50) is 138 µM and > 20.4 µM.

As for `CCOC(=O)C1=CC(C)(C(=O)OCC)Nc2c(nc(N)[nH]c2=O)N1` (centres undefined), the EC50 was 138 µM and the half-maximal inhibitory concentration (IC50) was more than 200 µM.

On to `CCOC(=O)Cn1c(=O)c2nc(SC)sc2n(-c2ccccc2)c1=O`, for which the EC50 was more than 200 µM and the 50% inhibitory concentration (IC50) was more than 200 µM.

Regarding `CCN(CC)C1C(=O)NC1C#Cc1ccccc1` (centres undefined), the EC50 was more than 200 µM and the IC50 was determined as 85.1 µM.

For the compound `Cc1cn(C2CC(N=[N+]=[N-])C(COP(=O)(O)OCC3CCC(n4ccc(N)nc4=O)O3)O2)c(=O)[nH]c1=O` (centres undefined), the concentration for a half-maximal effect (EC50) is 0.0468 µM and the IC50 was determined as 20 µM.

As to `C[C@H]1C2=CC(=O)CC[C@@](C)(O2)[C@H]2CC[C@]3(C)C(=O)CC[C@H]3[C@H]12`, the EC50 is more than 832 µM and the IC50 was 417 µM.

Turning to `O=c1/c(=C/c2ccc(Cl)cc2Cl)sc2nc3ccccc3n12`, the outcome was inactive.

For the compound `COc1ncnc2c1ncn2C1CC(O)C(CO)(C(F)(F)F)O1` (centres undefined), the EC50 was more than 200 µM and the IC50 is more than 200 µM.

For `CCn1cnc2c(NC(C)=O)ncnc21`, the EC50 was more than 200 µM and the IC50 was more than 200 µM.

Turning to `COc1ccc(C2S/C(=C\c3ccc([N+](=O)[O-])cc3)C(=O)N2NC(=O)Cc2ccccc2)cc1` (centres undefined), the EC50 was more than 55 µM and the concentration for half-maximal inhibition (IC50) is more than 55 µM.

For the compound `Cc1ccc2ccc3c(-c4ccccc4)cc(C)nc3c2n1`, the EC50 is more than 20 µM and the half-maximal inhibitory concentration (IC50) came out at 3.31 µM.

Turning to `Cc1cc(O)c(C=NC(=S)c2ccncc2)c(=O)o1`, the EC50 is more than 200 µM and the IC50 was more than 200 µM.

Consider `O=C1C(Br)=CC2(C=C1Br)CCNc1c(O)c3c4c(c12)=NCCC=4C=N3`, for which the EC50 is more than 2 µM and the half-inhibitory concentration (IC50) was 0.0891 µM.

For `CC(C)(C)C1CCC2(CC1)c1[nH]c3ccccc3c1C1(CCC(C(C)(C)C)CC1)c1[nH]c3ccccc3c12` (centres undefined), the EC50 is more than 7.41 µM and the 50% inhibitory concentration (IC50) is more than 7.41 µM.

Consider `O=[N+]([O-])c1cnc(N(CCO)CCO)s1`, for which the EC50 is more than 200 µM and the concentration for half-maximal inhibition (IC50) is more than 200 µM.

Turning to `CN(C)c1ccc(/C(=N\N)c2ccccc2)cc1`, the EC50 is more than 200 µM and the half-inhibitory concentration (IC50) is 112 µM.

`CC1(C23CC4CC(CC(C4)C2)C3)n2c(=O)n(-c3ccccc3)c(=O)n2C1(C)C12CC3CC(CC(C3)C1)C2` (centres undefined): the EC50 is more than 50.1 µM and the IC50 is more than 50.1 µM.

With `COC(=O)c1ccccc1/C=C1\Cc2c(ccc3c2CCC3)C1=O`, the EC50 is more than 151 µM and the IC50 is more than 151 µM.

Regarding `CC[C@](O)(CC(=O)O[C@H]1C(=O)O[C@@H]2C[C@H]3C(C)=CC(=O)[C@@H](O)[C@]3(C)[C@H]3[C@@]4(O)OC[C@]32[C@@H]1[C@@H](C)[C@H]4O)C(C)C`, the EC50 was more than 0.2 µM and the IC50 is 0.00363 µM.

For `O=c1c(SCc2ccc(Cl)cc2)c(SCc2ccc(Cl)cc2)cnn1-c1ccccc1`, the EC50 is more than 14.8 µM and the half-maximal inhibitory concentration (IC50) came out at 3.98 µM.

On to `O=S(=O)(O)C(O)C(F)(F)C(F)(F)C(F)(F)C(F)(F)C(O)S(=O)(=O)O` (centres undefined), for which the EC50 was more than 200 µM and the IC50 is 155 µM.

Turning to `CN(C)c1ccc(/C=C(\C#N)c2nc(-c3cc4ccccc4oc3=O)cs2)cc1`, the EC50 was 9.77 µM and the IC50 is more than 100 µM.

As to `COc1cc2c3c(c1)[nH]c(=S)n3C(=O)CCS2`, the EC50 was more than 200 µM and the 50% inhibitory concentration (IC50) was more than 100 µM.

For `CC(NC(=O)c1ccccc1SC(=O)CCC[n+]1ccccc1)C(N)=O` (centres undefined), the half-maximal effective concentration (EC50) was 2.24 µM and the half-inhibitory concentration (IC50) was determined as 19.1 µM.

As to `CC1(C)N=C(c2ccccn2)C(c2ccccn2)=NC1(C)C`, the EC50 is more than 851 µM and the concentration for half-maximal inhibition (IC50) was 661 µM.

Regarding `C1=CC2/C=C\c3[nH]c4ccccc4c3CCN(C1)C2` (centres undefined), the EC50 was more than 162 µM and the half-maximal inhibitory concentration (IC50) worked out at 75.9 µM.

As to `COc1cc(-c2ccc(N=Nc3cc(S(=O)(=O)O)c4cccc(S(=O)(=O)O)c4c3N)c(OC)c2)ccc1N=Nc1cc(S(=O)(=O)O)c2cccc(S(=O)(=O)O)c2c1N`, the EC50 is 14.1 µM and the IC50 was 89.1 µM.

Take `COc1ccccc1NC(=O)C(C#N)=C(SC)SC`: the EC50 is more than 200 µM and the IC50 was found to be 8.91 µM.

`C/C(CC(=O)CCC(=O)Nc1cccc(C(F)(F)F)c1)=N\NC(=O)NN`: the EC50 is more than 10 µM and the concentration for half-maximal inhibition (IC50) was more than 10 µM.

Regarding `O=C(NCCCCNCCCNC(=O)OCc1ccccc1)OCc1ccccc1`, the EC50 is more than 200 µM and the IC50 is 33.1 µM.

With `CCCCCCCCCCCC(=O)OCC1OC(n2cc(F)c(=O)[nH]c2=O)C(N)C(O)C1O` (centres undefined), the EC50 is more than 55 µM and the IC50 was more than 55 µM.

Take `COc1ccc(/C=C2\CCC(C)c3c2nc(N)c(C#N)c3-c2ccc(OC)c(OC)c2)cc1OC` (centres undefined): the outcome was inactive.

Turning to `O=C(Cn1c(=O)ccc2ccccc21)Cn1c(=O)ccc2ccccc21`, the EC50 was more than 200 µM and the IC50 is more than 200 µM.

Consider `CCOC(=O)C(=CN1CC(=O)NC1=S)C(=O)OCC`, for which the EC50 is more than 200 µM and the IC50 is more than 200 µM.

`Cc1nn2cnnc2s1`: the EC50 was more than 501 µM and the IC50 was more than 501 µM.

For `Clc1ccc(C2=Nc3ccccc3SC(c3cccs3)C2)cc1` (centres undefined), the EC50 was more than 7.59 µM and the 50% inhibitory concentration (IC50) was more than 7.59 µM.

With `O=C1NC(O)c2cc(O)ccc2O1` (centres undefined), the EC50 is more than 200 µM and the IC50 was determined as 81.3 µM.

With `C#CCN(N=O)C(=O)NC(CCCNC(=O)OCc1ccccc1)C(=O)OCc1ccccc1` (centres undefined), the EC50 was more than 28.8 µM and the IC50 was more than 28.8 µM.

For the compound `CC1=CC(C)(C)NC(=S)N1c1ccccc1O`, the outcome was inactive.

Consider `CN(C)CCCSCC(COc1nccc(-c2ccc(-c3ccc(-c4ccnc(OCC(CSCCCN(C)C)SCCCN(C)C)n4)s3)s2)n1)SCCCN(C)C` (centres undefined), for which the half-maximal effective concentration (EC50) is more than 4.27 µM and the IC50 was determined as 2.69 µM.

For the compound `CN(C)c1nc(N(C)C)n2c(-c3ccccc3[N+](=O)[O-])nnc2n1`, the EC50 is more than 60.3 µM and the IC50 is 41.7 µM.

For `FC(F)(F)c1ccc(C=NC23CC4CC(CC(C4)C2)C3)cc1`, the EC50 is more than 61.7 µM and the IC50 was more than 61.7 µM.

On to `O=NN(CCCl)C(=O)NC1CCCCC1`, for which the EC50 was more than 1070 µM and the IC50 was 35.5 µM.

In the case of `IC[P+]1(c2ccccc2)CCCC1`, the EC50 is more than 575 µM and the IC50 stood at 55 µM.

Take `Cc1[se]c(N)nc1-c1ccccc1`: the result was inactive.

With `CCC1CN2CCc3cc(OC)c(OC)cc3C2CC1CC1c2cc(OC)c(OC)cc2CCN1C(=O)C1CCCN1C(=O)OCc1ccccc1` (centres undefined), the outcome was inactive.

As to `S=c1[nH][nH]c(=S)c2[nH]cnc12`, the EC50 is more than 141 µM and the IC50 is more than 141 µM.

With `Nc1nc(N)c2ncn(CCOC(c3ccccc3)P(=O)(O)O)c2n1` (centres undefined), the EC50 is more than 200 µM and the IC50 is more than 200 µM.

As to `CSC1=C(C#N)C(c2ccccc2)CC(=O)N1` (centres undefined), the EC50 is more than 200 µM and the half-maximal inhibitory concentration (IC50) is more than 200 µM.

Consider `Br/C=C(\Br)C[N+]12CN3CN(CN(C3)C1)C2`, for which the EC50 is more than 200 µM and the half-inhibitory concentration (IC50) worked out at 110 µM.

Regarding `CCOCc1c(C(=O)NCCO)[n+](=O)c2ccccc2n1[O-]`, the EC50 is more than 44.7 µM and the 50% inhibitory concentration (IC50) was more than 44.7 µM.

As for `COc1ccc(CN2CCC/C=C/CC(Cl)(Cl)C2=O)cc1`, the EC50 was more than 110 µM and the IC50 turned out to be 57.5 µM.

With `CC(C)=CCN1Cc2c(Cl)ccc3[nH]c(=S)n(c23)C[C@@H]1C`, the concentration for a half-maximal effect (EC50) was 0.00224 µM and the IC50 worked out at 5.89 µM.

As for `Cc1[nH]c(NC(=O)C(=O)O)c(C#N)c1C`, the EC50 is more than 200 µM and the concentration for half-maximal inhibition (IC50) is more than 200 µM.

As for `COc1cc(/C=N/NC2=NCCCN2)ccc1O`, the EC50 was more than 200 µM and the 50% inhibitory concentration (IC50) was more than 200 µM.

As to `OCC(O)C1[O][Sb][O]C1C(O)CO` (centres undefined), the EC50 was more than 200 µM and the IC50 was more than 200 µM.
